Test [1] has as its target Melanocyte-stimulating hormone receptor (Homo sapiens, UniProt Q01726). Put plainly: Binding affinity to MC1 receptor.
Test [2] concerns the target Melanocortin receptor 3 (Homo sapiens, UniProt P41968). Put plainly: Binding affinity to MC3 receptor.
Test [3] concerns the target T1, Melanocortin receptor 4 (Homo sapiens, UniProt P32245). Description: Binding affinity to MC4 receptor.
The target of test [4] is T1, Melanocortin receptor 4. Put plainly: Agonist potency at MC4 receptor. Type of test: functional.

SMILES strings stand for the structures. Where a SMILES comes first, the peptide text is derived from it. [ ]: non-standard residue; d: D form. 2Nal = N[C@@H](Cc1ccc2ccccc2c1)C(=O)O

What is called Ki is a dissociation constant, usually derived from enzyme kinetics or from competition with a known ligand. Higher therefore signals weaker binding. One may read the EC50 as the concentration needed to bring the measured effect to its halfway point. A higher EC50 goes with a less potent agent. In general, Emax refers to the size of the effect at its maximum, as opposed to the concentration needed.

T1 sequence (P32245 whole entry): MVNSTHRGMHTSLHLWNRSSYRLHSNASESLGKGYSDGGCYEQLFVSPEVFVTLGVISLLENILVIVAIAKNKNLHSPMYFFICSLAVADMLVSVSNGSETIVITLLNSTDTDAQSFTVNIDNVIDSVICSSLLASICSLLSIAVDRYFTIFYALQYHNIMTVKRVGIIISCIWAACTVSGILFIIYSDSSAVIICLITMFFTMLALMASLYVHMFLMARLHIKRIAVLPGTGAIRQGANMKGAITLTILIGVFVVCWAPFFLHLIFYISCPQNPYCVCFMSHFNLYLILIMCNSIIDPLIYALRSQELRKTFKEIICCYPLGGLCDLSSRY
Sequence of Melanocortin receptor 3 (P41968 whole entry): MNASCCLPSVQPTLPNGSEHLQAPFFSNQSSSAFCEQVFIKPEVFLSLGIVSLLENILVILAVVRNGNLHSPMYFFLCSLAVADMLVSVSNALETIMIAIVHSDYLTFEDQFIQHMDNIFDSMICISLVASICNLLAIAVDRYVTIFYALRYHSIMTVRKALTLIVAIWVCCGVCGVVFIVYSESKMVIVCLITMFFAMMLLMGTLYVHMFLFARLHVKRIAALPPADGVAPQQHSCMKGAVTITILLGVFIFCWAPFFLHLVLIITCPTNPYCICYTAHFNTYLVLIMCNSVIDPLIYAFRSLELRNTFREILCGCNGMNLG
Sequence of Melanocyte-stimulating hormone receptor (Q01726 whole entry): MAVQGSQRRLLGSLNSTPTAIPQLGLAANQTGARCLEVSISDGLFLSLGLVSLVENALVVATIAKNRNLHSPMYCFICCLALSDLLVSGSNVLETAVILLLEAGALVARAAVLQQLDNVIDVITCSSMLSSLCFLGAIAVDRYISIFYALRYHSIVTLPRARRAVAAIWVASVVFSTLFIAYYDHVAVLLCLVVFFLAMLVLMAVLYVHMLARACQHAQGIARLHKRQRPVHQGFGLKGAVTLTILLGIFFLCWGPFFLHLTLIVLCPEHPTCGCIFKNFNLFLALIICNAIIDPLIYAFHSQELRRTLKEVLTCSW

On to `CNC(=O)[C@H](Cc1ccc2ccccc2c1)NC(=O)[C@H](CCCN=C(N)N)NC(=O)[C@H](CC[C@H](Cc1ccc(O)cc1)NC(C)=O)Cc1ccccc1`, for which the Ki in test [1] stood at 8560 nM; in test [2], 24700 nM; in test [3] it was 214 nM. For the same molecule, the EC50 in test [4] was found to be 38 nM. For the same molecule, the Emax in test [4] was determined as 90%.

For `CNC(=O)[C@H](Cc1ccc2ccccc2c1)NC(=O)[C@H](CCCN=C(N)N)NC(=O)[C@H](CC[C@H](Cc1ccc(O)cc1)NC(C)=O)Cc1ccc(F)cc1`, the figures for the Ki in test [1], in test [2] and in test [3] were 22300 nM, 6200 nM and 5 nM, respectively. Besides, the EC50 in test [4] came to 10 nM. Also, in test [4], the Emax came to 91%.

As for `CNC(=O)[C@H](Cc1ccc2ccccc2c1)NC(=O)[C@H](CCCN=C(N)N)NC(=O)[C@H](CC[C@@H]1Cc2ccccc2CN1)Cc1ccccc1`, the Ki in test [1] is 3990 nM; in test [2], 2410 nM; in test [3], 220 nM. Moreover, the EC50 in test [4] amounted to 160 nM. Further, the maximal effect (Emax) in test [4] was 77%.

Consider `N=C(N)NCCC[C@H]1C[C@@H](OCc2ccccc2)CN1C(=O)[C@@H](Cc1ccccc1)NC(=O)C1Cc2ccccc2CN1` (single isomer, unassigned), for which the Ki in test [1] stood at 30 nM; in test [2], 468 nM; in test [3] it was 13 nM. Besides, in test [4], the EC50 is 22 nM. The same molecule came in with an Emax in test [4] of 89%.

For `CNC(=O)[C@H](Cc1ccc2ccccc2c1)NC(=O)[C@H](CCCN=C(N)N)NC(=O)[C@H](CC[C@H](Cc1ccccc1)NC(C)=O)Cc1ccc(F)cc1`, the Ki amounted to 23400 nM in test [1], 55500 nM in test [2] and 37 nM in test [3]. This molecule gave an EC50 in test [4] of 20 nM. The molecule further showed an Emax in test [4] of 102%.

As for `CNC(=O)[C@H](Cc1ccc2ccccc2c1)NC(=O)[C@H](CCCN=C(N)N)NC(=O)[C@H](CC[C@H](Cc1ccc(Cl)cc1)NC(C)=O)Cc1ccc(F)cc1`, the Ki in test [1] amounted to 12300 nM; in test [2], 18000 nM; in test [3], 214 nM. Further, the midpoint of the response in test [4], the EC50, lay at 193 nM. This molecule also registered an Emax in test [4] of 100%.

Turning to `CNC(=O)[C@H](Cc1ccc2ccccc2c1)NC(=O)[C@H](CCCN=C(N)N)NC(=O)[C@@H](Cc1ccccc1)NC(=O)[C@@H]1Cc2ccccc2CN1`, the Ki in test [1] was 2280 nM; in test [2] it was 1630 nM; in test [3], 24 nM. The EC50 in test [4] is 10 nM. For the same molecule, the Emax in test [4] was 81%.

As to `N=C(N)NCCC[C@H]1C[C@@H](OCc2ccccc2)CN1C(=O)[C@H](CC[C@H]1Cc2ccccc2CN1)Cc1ccccc1`, the Ki in test [1] worked out at 71 nM; in test [2] it was 382 nM; in test [3] it was 76 nM. The EC50 in test [4] turned out to be 142 nM. The Emax in test [4] turned out to be 76%.

For `CNC(=O)[C@H](Cc1ccc2ccccc2c1)NC(=O)[C@H](CCCN=C(N)N)NC(=O)[C@@H](Cc1ccccc1)NC(=O)[C@H](Cc1ccc(O)cc1)NC(C)=O` (Ac-Y[dF]R[2Nal]-NHMe), the results for the Ki in test [1], in test [2] and in test [3] were 4520 nM, 1730 nM and 104 nM, respectively. The molecule also came in with an EC50 in test [4] of 44 nM.

With `CC(=O)N[C@H](Cc1ccc(O)cc1)C(=O)N[C@H](Cc1ccccc1)C(=O)N1C[C@H](OCc2ccccc2)C[C@@H]1CCCN=C(N)N`, the results for the Ki in test [1], in test [2] and in test [3] were 9 nM, 23 nM and 10 nM, respectively. Moreover, the EC50 in test [4] was 8 nM. For the same molecule, the Emax in test [4] was 84%.

These data come from ChEMBL document CHEMBL1139021, “Synthesis of Tic-D-Phe Psi[CH2-CH2] isostere and its use in the development of melanocortin receptor agonists” (Bioorg Med Chem Lett, 2006).
